Results from patent publication US6245758A, “Methods of use for peroxynitrite decomposition catalysts, pharmaceutical compositions therefor” (priority 1996, dated 2001).

Legend:
rat jejunum [1] = assay: Intestinal vascular permeability (radiolabelled albumin leakage) after endotoxin (LPS); assay type: in vivo; conditions: 30 mg/kg, i.v, 3 h after LPS; determined 1 h later
Description: FIG. 10 . Effects of FeTMPS, FeTMPyP or ZnTMPyP (30 mg/kg, i.v bolus) administered 3 h after challenge with E. coli lipopolysaccharide (LPS, 3 mg/kg, i.v bolus) on the increase in leakage of radio-labelled albumin (plasma extravasation, μl/g tissue) observed 1 h later (e.g 4 h after LPS challenge) in the rat jejunum. Results are shown as mean±s.e.m of 4-8 rats.
Intestinal vascular permeability was determined as the leakage into the jejunal tissue of [^125 I]-labelled bovine serum albumin ([^125 ]-BSA) administered intravenously (0.5 ml; 0.5 μCi) together with either LPS (3 mg/kg, serotype O111:B4) or isotonic saline. At 4 h after LPS administration, segments of jejunal tissue were ligated and removed. The intestinal tissues were rapidly washed, blotted dry and weighed. Blood (0.5 ml) was collected into tubes containing tri-sodium citrate (0.318% final concentration) and plasma prepared by centrifugation (10,000 g×10 min). The {^125 I]-BSA content in segments of whole tissue and in aliquots of plasma (100 μl) was determined in a gamma counter. The total content of plasma in the intestinal tissues was expressed as μl/g tissue. Changes in intravascular volume in the intestinal tissue was determined in an additional group of rats by administering ([^125 I]-BSA) intravenously 2 min before removal of the jejunum. The tissue and plasma content of radiolabel was determined and intravascular volume expressed as μl/g tissue. This value was substracted from that obtained in the plasma leakage studies to obtain a measure of the intestinal plasma albumin leakage. After LPS administration (4 h), there was a significant (P<0.01) increase in the plasma leakage (from 77±10 to 224±18 μl/g tissue, n=8).

rat jejunum [2] = assay: Histological examination of jejunal tissues after LPS; assay type: in vivo; conditions: 30 mg/kg i.v.
[3] = Stopped-flow kinetic analysis of catalytic decomposition of peroxynitrite by metal complexes; conditions: pH = 7.4, 22° C.
Description: To screen metal complexes for peroxynitrite decomposition catalytic activity of the present invention, peroxynitrite is prepared and isolated as its sodium salt by the reaction of acidic hydrogen peroxide with sodium nitrite followed by rapid quenching with NaOH as set out by Halfpenny and Robinson, in J. Chem. So., 1952, 928-938. Peroxynitrite has an absorbance maximum at 302 nm with an extinction coefficient of 1670 M^-1 cm^-1. Therefore, it is possible to directly observe the decomposition of peroxynitrite by stop-flow spectrophotometric analysis by monitoring the decomposition of the absorbance at 302 nm. That is, such observation of the decomposition of peroxynitrite at a rate accelerated over the natural decomposition rate with the addition of the metal complex identifies a compound of the present invention.
Kinetic measurements were made on an OLIS Rapid Scanning Stopped-Flow Spectrometer (On-Line Instrument Systems Inc., Bogart, Ga.)) using the OLISRSM-1000 Operating system for data acquisition and manipulation.
Thus, in a typical experiment the natural background decomposition rate of sodium peroxynitrite was determined as follows. A 24 mM stock solution of sodium peroxynitrite in 50 mM NaOH is load into the small volume syringe and 100 mM potassium phosphate pH=7.4 is charged into the large volume syringe of the stopped-flow spectrophotometer. All stopped -flow measurements were made at 22 ° C. Injection of the solutions into the sample compartment results in ~25 fold dilution of the stock sodium peroxynitrite. […] To test for catalytic peroxynitrite decomposition activity, the metal complex was dissolved in 100 mM potassium phosphate buffer pH=7.4 and loaded into the large syringe and the decomposition of peroxynitrite was monitored as described above. The catalytic rate constant (kcat M-1 sec^-1) for the complexes tested was determined by varying the complex concentration and plotting kobs vs [complex] Table 1. The kobs were obtained from averages of three stopped flow analysis at each catalyst concentration.

CuZnSOD = assay: Protection of CuZnSOD from inactivation by peroxynitrite using peroxynitrite decomposition catalysts; assay type: biochemical, bovine; conditions: Fe(III)TMPyP 0.5 and 1.0 uM, Fe(III)TMPS 1.0 and 5.0 uM; peroxynitrite 0-100 uM
Description: Assay solutions were prepared as described above except for the addition of various of peroxynitrite decomposition catalyst. The final solution volume was maintained at 10 mL. Thus, to the assay solutions Fe(III)TMPyP (0.5 and 1.0 uM final concentration) and Fe(III)TMPS (1.0 and 5.0 uM final concentration) was added. The solution were then treated with various amounts of peroxynitrite such that the final concentrations of 0,25, 50, 75 and 100 uM were achieved. Following treatment with peroxynitrite EDTA was added to a final concentration of 250 uM. The solutions were then assayed for SOD activity.

[4] = Catalysis of dismutation of superoxide; conditions: under the assay conditions employed
[5] = tested on: carrageenan-induced paw edema; assay: Carrageenan-induced paw edema; assay type: in vivo, rat
From the text: Carrageenan-induced paw edema. The effects of peroxynitrite catalysts in vivo were initially tested on the carrageenan-induced paw edema. The choice of using this in vivo model of inflammation was based on the knowledge that 1) the inflammatory response is blocked by NOS inhibitors and 2) by superoxide dismutase (SOD). This indicates the participation of both NO and of O2-. Male Sprague Dawley rats were purchased from Harlan Sprague-Dawley (Indianapolis, Ind.). Male Sprague Dawley rats (175-200 g) received a subplantar injection in the right hind paw of carrageenan (0.1 ml of a 1% suspension in 0.85% saline). Paw volume was measured by a plethysmometer immediately before the injection of carrageenan and then at hourly intervals from 1 to 6 h. Edema was expressed as the increase in paw volume (in ml) measured after carrageenan injection compared to the pre-injection value for individual animals.

[6] = 3 mg/kg i.v., 1 h post carrageenan
[7] = 3 mg/kg i.v., 2 h post carrageenan
[8] = 3 mg/kg i.v., 3 h post carrageenan
[9] = 3 mg/kg i.v., 4 h post carrageenan
[10] = 3 mg/kg i.v., 5 h post carrageenan
[11] = 3 mg/kg i.v., 6 h post carrageenan
[12] = 10 mg/kg i.v., 1 h post carrageenan
[13] = 10 mg/kg i.v., 2 h post carrageenan
[14] = 10 mg/kg i.v., 3 h post carrageenan
[15] = 10 mg/kg i.v., 4 h post carrageenan
[16] = 10 mg/kg i.v., 5 h post carrageenan
[17] = 10 mg/kg i.v., 6 h post carrageenan
[18] = 30 mg/kg i.v., 1 h post carrageenan
[19] = 30 mg/kg i.v., 2 h post carrageenan
[20] = 30 mg/kg i.v., 3 h post carrageenan
[21] = 30 mg/kg i.v., 4 h post carrageenan
[22] = 30 mg/kg i.v., 5 h post carrageenan
[23] = 30 mg/kg i.v., 6 h post carrageenan

## CC(=O)[O-].Cc1c(-c2c3nc(c(-c4c(C)c(S(=O)(=O)[O-])c(C)c(S(=O)(=O)[O-])c4C)c4ccc([n-]4)c(-c4c(C)c(S(=O)(=O)[O-])c(C)c(S(=O)(=O)[O-])c4C)c4nc(c(-c5c(C)c(S(=O)(=O)[O-])c(C)c(S(=O)(=O)[O-])c5C)c5ccc2[n-]5)C=C4)C=C3)c(C)c(S(=O)(=O)[O-])c(C)c1S(=O)(=O)[O-].[Fe+3].[Na+].[Na+].[Na+].[Na+].[Na+].[Na+].[Na+].[Na+] [Fe(III)TMPS, Acetato-5,10,15,20-tetrakis(3,5-disulfonatomesityl)porphyrin Iron (III) octasodium salt]
Rat jejunum [1]
  radiolabelled albumin leakage: caused a reduction in radiolabelled albumin leakage
Rat jejunum [2]
  LPS-induced jejunal damage (histology): LPS-induced damage was less severe
[3]
  kcat, catalytic rate constant for the decomposition of sodium peroxynitrite: 160000 M⁻¹ s⁻¹
CuZnSOD
  protection of CuZnSOD against inactivation by peroxynitrite: concentration dependant protection of CuZnSOD against inactivation by peroxynitrite
[4]
  catalysis of the dismutation of superoxide: not to be effective catalysts for the dismutation of superoxide
[5]; [6]
  % Inhibition of Paw Edema: 0%
[5]; [7]
  % Inhibition of Paw Edema: 42%
[5]; [8]
  % Inhibition of Paw Edema: 47%
[5]; [9]
  % Inhibition of Paw Edema: 47%
[5]; [10]
  % Inhibition of Paw Edema: 33%
[5]; [11]
  % Inhibition of Paw Edema: 33%
[5]; [12]
  % Inhibition of Paw Edema: 0%
[5]; [13]
  % Inhibition of Paw Edema: 61%
[5]; [14]
  % Inhibition of Paw Edema: 60%
[5]; [15]
  % Inhibition of Paw Edema: 53%
[5]; [16]
  % Inhibition of Paw Edema: 53%
[5]; [17]
  % Inhibition of Paw Edema: 47%
[5]; [18]
  % Inhibition of Paw Edema: 0%
[5]; [19]
  % Inhibition of Paw Edema: 85%
[5]; [20]
  % Inhibition of Paw Edema: 80%
[5]; [21]
  % Inhibition of Paw Edema: 80%
[5]; [22]
  % Inhibition of Paw Edema: 80%
[5]; [23]
  % Inhibition of Paw Edema: 81%

## CC(=O)[O-].C[n+]1ccc(-c2c3nc(c(-c4cc[n+](C)cc4)c4ccc([n-]4)c(-c4cc[n+](C)cc4)c4nc(c(-c5cc[n+](C)cc5)c5ccc2[n-]5)C=C4)C=C3)cc1.Cc1ccc(S(=O)(=O)[O-])cc1.Cc1ccc(S(=O)(=O)[O-])cc1.Cc1ccc(S(=O)(=O)[O-])cc1.Cc1ccc(S(=O)(=O)[O-])cc1.[Fe+3] [Fe(III)TMPyP, Acetato (5,10,15,20-tetrakis(N-methyl-4-pyridyl)porphinato) iron (III) tetra-tosylate]
Rat jejunum [1]
  radiolabelled albumin leakage: caused a reduction in radiolabelled albumin leakage
Rat jejunum [2]
  LPS-induced jejunal damage (histology): LPS-induced damage was less severe
[3]
  kcat, catalytic rate constant for the decomposition of sodium peroxynitrite: 2.75e+06 M⁻¹ s⁻¹
CuZnSOD
  protection of CuZnSOD against inactivation by peroxynitrite: concentration dependant protection of CuZnSOD against inactivation by peroxynitrite
[4]
  catalysis of the dismutation of superoxide: not to be effective catalysts for the dismutation of superoxide
[5]; [6]
  % Inhibition of Paw Edema: 0%
[5]; [7]
  % Inhibition of Paw Edema: 9%
[5]; [8]
  % Inhibition of Paw Edema: 10%
[5]; [9]
  % Inhibition of Paw Edema: 17%
[5]; [10]
  % Inhibition of Paw Edema: 6%
[5]; [11]
  % Inhibition of Paw Edema: 0%
[5]; [12]
  % Inhibition of Paw Edema: 6%
[5]; [13]
  % Inhibition of Paw Edema: 13%
[5]; [14]
  % Inhibition of Paw Edema: 11%
[5]; [15]
  % Inhibition of Paw Edema: 28%
[5]; [16]
  % Inhibition of Paw Edema: 21%
[5]; [17]
  % Inhibition of Paw Edema: 2%
[5]; [18]
  % Inhibition of Paw Edema: 0%
[5]; [19]
  % Inhibition of Paw Edema: 44%
[5]; [20]
  % Inhibition of Paw Edema: 43%
[5]; [21]
  % Inhibition of Paw Edema: 50%
[5]; [22]
  % Inhibition of Paw Edema: 32%
[5]; [23]
  % Inhibition of Paw Edema: 32%
